Test results published in article PMC12670426 (Journal of Medicinal Chemistry, 2025).
Read-outs that look alike come from different tables or passages of the source.

Experiments:
[1] = Plasma stability assay, mouse plasma; type: in vitro ADME; conditions: 37 °C
Experimental: Test compounds (10 μM) were incubated with mouse, rat, or human pooled plasma from 50 donors (Biowest) at 37 °C for 20, 60, and 120 min. Reactions were terminated by adding four volumes of ice-cold methanol, followed by vigorous mixing. Samples were kept at −20 °C for 30 min and then stored at 4 °C overnight. The next day, samples were centrifuged, and supernatants were diluted with four volumes of 30% methanol in water. Zero time points were prepared by adding ice-cold methanol to the compound prior to the addition of plasma. Samples were then analyzed on an Echo MS system (SCIEX) using multiple reaction monitoring (MRM). The only exception was compound 3af, which was analyzed by LC–MS/MS (SCIEX 6500 triple quadrupole) due to its weak ionization in Echo-MS.

[2] = Plasma protein binding assay (rapid equilibrium dialysis), mouse plasma; type: in vitro ADME; conditions: fraction bound, read-out: plasma protein binding Fb mouse (converted)
Experimental: Test compound (10 μM) was incubated at 37 °C for 4 h with mouse, rat, or human plasma (Biowest) in the donor well of a rapid equilibrium dialysis plate (Thermo Fisher Scientific). PBS was placed in the acceptor well. To stop the assay, samples were collected from both wells, and an equal volume of plasma was added to the PBS sample, and vice versa. Proteins were then precipitated by adding three volumes of ice-cold methanol. Samples were mixed gently, kept at −20 °C for 30 min, and then stored at 4 °C overnight. The next day, the samples were centrifuged, and the supernatants were diluted with four volumes of 30% methanol in water. The samples were then analyzed using the Echo-MS system (SCIEX) with MRM transition monitoring, except for compound 3af, which was analyzed by LC–MS/MS as described in the plasma stability assay.

[3] = Microsomal stability assay, rat liver microsomes; type: in vitro ADME; conditions: pooled liver microsomes, pH 7.4, rat liver microsomes 0.5 mg/mL, NADPH
Experimental: Microsomal stability was determined using 0.5 mg/mL of pooled human, mouse, or rat liver microsomes (Thermo Fisher Scientific) in 90 mM TRIS-Cl buffer (pH 7.4) containing 2 mM NADPH and 2 mM MgCl2. Test compounds (10 μM) were added, and the resulting mixture was incubated at 37 °C for 10, 60, 120, and 180 min. The reactions were terminated by the addition of four volumes of ice-cold methanol, followed by vigorous mixing. The samples were left at −20 °C for 30 min and then stored at 4 °C overnight. The next day, samples were centrifuged, and supernatants were diluted with four volumes of 30% methanol in water. Zero time points were prepared by adding ice-cold methanol to the mixture of compounds and cofactors prior to the addition of microsomes. The samples were then analyzed using the Echo-MS system (SCIEX) with MRM transition monitoring, except for compound 3af, which was analyzed by LC–MS/MS as described in the plasma stability assay.

[4] = biological target: T1, human galectin-1 (Gal-1, full length) (Homo sapiens, UniProt P09382); assay: Competitive fluorescence polarization assay, Gal-1; type: binding
T1 construct: Gal-1 is a prototype galectin consisting of a single CRD and was used in full length; 6xHis tag with TEV protease site (N, cleaved yes); made in house; host or cells: BL21 Escherichia coli (pET-15b)
T1 sequence (P09382 2-135): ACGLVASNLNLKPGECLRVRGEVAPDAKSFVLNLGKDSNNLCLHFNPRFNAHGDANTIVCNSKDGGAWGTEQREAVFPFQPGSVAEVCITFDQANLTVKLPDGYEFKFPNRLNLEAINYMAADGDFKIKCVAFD
Summary of the method: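 Competitive fluorescence polarization (anisotropy) with a fluorescent probe; full-length Gal-1 and C-terminal CRD construct of Gal-3. Read after 30–60 min incubation at 25 °C. Kd fitted with Wang's exact cubic competitive model, rmin/rmax fixed from direct binding.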

[5] = Cytotoxicity assay, panel of five human cell lines; type: cell-based; conditions: HEK293, HepG2, THP-1, Jurkat E6.1 and LX2 cells; summary in text across panel of five human cell lines
Experimental: To evaluate in vitro cytotoxicity and support its potential application in inflammatory and fibrotic disease models, the following panel of cell lines, representing the relevant biological systems, was used: HEK293, HepG2, THP1, Jurkat E6.1, and LX2. HEK293, HepG2, and Jurkat E6.1 cells were seeded at 400,000 cells/mL, THP1 cells at 500,000 cells/mL, and LX2 cells at 200,000 cells/mL in 96-well plates (cell culture-treated, VWR) in 100 μL/well. Cells were treated with the tested compounds in a serial dilution (300, 100, 33.3, 11.1, and 3.7 μM) for 24 h. Untreated cells served as negative controls to establish the baseline viability threshold. Cell viability was assessed using a viability dye (Zombie Violet Fixable Viability Kit, BioLegend) following the manufacturer’s instructions and analyzed by flow cytometry (see below).
Cells or beads from screening assays prepared for flow cytometry were analyzed by the CytoFlex S instrument (Beckman Coulter). Data acquisition was performed using CytExpert software (v2.5, Beckman Coulter). Debris was excluded by forward and side scatter gating, followed by doublet exclusion. Data were analyzed using FlowJo software (v10, BD Biosciences).

In the case of CC(=O)N(c1cc(C(=O)O)cc2[nH]ccc12)[C@@H]1O[C@H](CO)[C@@H](S[C@@H]2O[C@H](CO)[C@H](O)[C@H](n3cc(-c4cccc(F)c4)nn3)[C@H]2O)[C@H](O)[C@H]1O [Compound 11, N-[4-S-(3-Deoxy-3-(4-(3-fluorophenyl)-1H-1,2,3-triazol-1-yl)-β-D-galactopyranosyl)-4-thio-β-D-glucopyranosyl]-N-(6-carboxy-1H-indol-4-yl)acetamide], the remaining at 2 h, 10 μM [1] is reported as 100 ± 3%, the fraction unbound at 4 h, 10 μM [2] is reported as 0.57 and the microsomal CLint at 10 μM [3] is reported as less than 2 µL/min/mg. It also gave an IC50 ([4]; CSV supplement, unrounded mean, read-out: Gal1_IC50_mean_uM) of 4.34 µM, a Kd ([4]; CSV supplement, unrounded mean, read-out: Gal1_Kd_mean_uM) of 2.18 µM and a Kd ([4]; competitive fluorescence polarization, mean ± SD, read-out: Kd Gal-1) of 2.2 ± 0.3 µM. For the same compound, the IC50 ([4]; four-parameter logistic model, mean ± SD, read-out: IC50 Gal-1) was 4.3 ± 0.2 µM and the CC50 at 24 h [5] was greater than 300 µM.
